Results published in article PMC6440567 (Clinical and Translational Science, 2018).

Columns and labels:
[1] = test system: OAT3; details: in vitro; cited from earlier work
[2] = test system: organic anion transporter 1 (OAT1); details: in vitro; cited from earlier work
[3] = taken to be; ref not given; cited from earlier work
[4] = test system: ceftazidime‐resistant P. aeruginosa; details: thigh and lung infection; cited from earlier work
[5] = Final avibactam PopPK model; type: in vivo, human; details: for clearance: human, plasma, intravenous
[6] = test system: ceftazidime‐resistant Enterobacteriaceae; details: cited from earlier work
[7] = Individual predicted steady‐state exposures; type: in vivo, human; details: for AUC / Cmax: human, plasma; for AUC: AUCss,0–24 geometric mean (CV)
[8] = non‐Chinese, non‐Japanese Asians vs other racial origins

NC(=O)[C@@H]1CC[C@@H]2CN1C(=O)N2OS(=O)(=O)O [Avibactam, avibactam]
transporter substrate [1]: substrate | transporter substrate [2]: substrate | free plasma concentrations as % of total plasma concentrations [3]: 92% | %fT > 1 mg/L associated with 2log10 reductions in bacterial density [4]: 20–55% | %fT > 1 mg/L associated with stasis [4]: 16–24% | lower V c ([5]; 10th percentile of body weight (51 kg) vs median weight (70 kg)): 29% | higher V c ([5]; 90th percentile of body weight (95 kg) vs median weight (70 kg)): 39% | decrease in CL ([5]; APACHE II score > 10): 19.7% | increase in CL for an increase of 100 mL/min in CrCL over 80 mL/min ([5]; CrCL ≥ 80 mL/min): 27.9% | clearance ([5]; CL, patients with ESRD, off dialysis): 1.13 mL/min | clearance ([5]; CL, patients with ESRD, on‐dialysis): 347 mL/min | clearance ([5]; θ1: CL, typical value): 170 mL/min | clearance ([5]; θ6: CL estimate for patients on dialysis): 347 mL/min | θ9: Population effect on V c (cIAI, phase II), V c*(1 + θ9) ([5]; in vivo): 1.92 | θ11: Population effect on V c (cUTI), V c*(1 + θ11) ([5]; in vivo): 0.434 | θ12: Population effect on V c (cIAI, phase III, NP), V c*(1 + θ11) ([5]; in vivo): 0.329 | θ14: WT on V c (WT/70.0)^θ14 ([5]; in vivo): 1.08 | θ 28: NPv on V c,V c*(1 + θ28) ([5]; in vivo): 0.175 | increase in AUC [5, 8]: 9.5% | lower CL [5, 8]: 8.65% | higher V c ([5]; patients with NPv vs non‐NPv patients): 17.5% | higher V c ([5]; patients with cUTI vs healthy subjects): 43.4% | higher V c ([5]; phase III patients with cIAI and patients with NP vs healthy subjects): 32.9% | θ2: V c ([5]; typical value): 11.1 L | θ3: Q ([5]; typical value): 5.44 L/h | θ4: V p ([5]; typical value): 6.91 L | C T that restored the activity of ceftazidime ([6]; avibactam concentration fixed, varying concentrations of ceftazidime): ≤ 0.5 mg/L | C T sufficient to restore ceftazidime activity ([6]; fixed concentrations of ceftazidime, varying concentrations of avibactam): 0.15 to 0.28 mg/L | AUC ([7]; Age (years) 18–65): 131 µg·h/mL | AUC ([7]; Age (years) > 65–75): 156 µg·h/mL | AUC ([7]; Age (years) > 75–89): 180 µg·h/mL | AUC ([7]; Asian population: China (only)): 153 µg·h/mL | AUC ([7]; Asian population: Japan): 164 µg·h/mL | AUC ([7]; Baseline WBC count Missing): 147 µg·h/mL | AUC ([7]; Concomitant use of OAT1/OAT3 inhibitor(s): No): 142 µg·h/mL | AUC ([7]; Concomitant use of OAT1/OAT3 inhibitor(s): Yes): 150 µg·h/mL | AUC ([7]; Fever at baseline: Missing): 132 µg·h/mL | AUC ([7]; Fever at baseline: No): 146 µg·h/mL | AUC ([7]; Fever at baseline: Yes): 134 µg·h/mL | AUC ([7]; Obesity I (29.9 ≤ BMI < 34.9 kg/m^2)): 136 µg·h/mL | AUC ([7]; Obesity II (34.9 ≤ BMI < 39.9 kg/m^2)): 141 µg·h/mL | AUC ([7]; Obesity III (BMI ≥ 39.9 kg/m^2)): 115 µg·h/mL | AUC ([7]; Obesity: Missing): 172 µg·h/mL | AUC ([7]; Obesity: Normal): 144 µg·h/mL | AUC ([7]; Race: Asian (non‐Chinese; non‐Japanese)): 166 µg·h/mL | AUC ([7]; Race: Chinese and Taiwanese): 151 µg·h/mL | AUC ([7]; Race: Japanese): 164 µg·h/mL | AUC ([7]; Race: White/other): 135 µg·h/mL | Cmax ([7]; C max,ss geometric mean (CV), Age (years) 18–65): 12500 ng/mL | Cmax ([7]; C max,ss geometric mean (CV), Age (years) > 65–75): 13200 ng/mL | Cmax ([7]; C max,ss geometric mean (CV), Age (years) > 75–89): 14000 ng/mL | Cmax ([7]; C max,ss geometric mean (CV), Asian population: China (only)): 14900 ng/mL | Cmax ([7]; C max,ss geometric mean (CV), Asian population: Japan): 16100 ng/mL | Cmax ([7]; C max,ss geometric mean (CV), Asian population: Korea): 13000 ng/mL | Cmax ([7]; C max,ss geometric mean (CV), Concomitant use of OAT1/OAT3 inhibitor(s): No): 12800 ng/mL | Cmax ([7]; C max,ss geometric mean (CV), Concomitant use of OAT1/OAT3 inhibitor(s): Yes): 13700 ng/mL | Cmax ([7]; C max,ss geometric mean (CV), Fever at baseline: Missing): 11800 ng/mL | Cmax ([7]; C max,ss geometric mean (CV), Fever at baseline: No): 12900 ng/mL | Cmax ([7]; C max,ss geometric mean (CV), Fever at baseline: Yes): 12200 ng/mL | Cmax ([7]; C max,ss geometric mean (CV), Obesity I (29.9 ≤ BMI < 34.9 kg/m^2)): 12000 ng/mL | Cmax ([7]; C max,ss geometric mean (CV), Obesity II (34.9 ≤ BMI < 39.9 kg/m^2)): 13200 ng/mL | Cmax ([7]; C max,ss geometric mean (CV), Obesity III (BMI ≥ 39.9 kg/m^2)): 9700 ng/mL | Cmax ([7]; C max,ss geometric mean (CV), Obesity: Missing): 14200 ng/mL | Cmax ([7]; C max,ss geometric mean (CV), Obesity: Normal): 13000 ng/mL | Cmax ([7]; C max,ss geometric mean (CV), Race: Asian (non‐Chinese; non‐Japanese)): 14900 ng/mL | Cmax ([7]; C max,ss geometric mean (CV), Race: Chinese and Taiwanese): 14700 ng/mL | Cmax ([7]; C max,ss geometric mean (CV), Race: Japanese): 16100 ng/mL | Cmax ([7]; C max,ss geometric mean (CV), Race: White/other): 12000 ng/mL | Cmax ([7]; intravenous): 12700 ng/mL | AUC ([7]; intravenous, 187.5 mg, Day 3 CrCL 8–15 mL/min (750‐187.5 mg q24 h)): 86.3 µg·h/mL | Cmax ([7]; intravenous, 187.5 mg, C max,ss geometric mean (CV), Day 3 CrCL 8–15 mL/min (750‐187.5 mg q24 h)): 6300 ng/mL | AUC ([7]; intravenous, 500 mg, Day 3 CrCL > 150–180 mL/min (2000‐500 mg q8 h)): 103 µg·h/mL | Cmax ([7]; intravenous, 500 mg, C max,ss geometric mean (CV), Day 3 CrCL > 150–180 mL/min (2000‐500 mg q8 h)): 9900 ng/mL | AUC ([7]; intravenous, Asian population: Korea): 144 µg·h/mL | AUC ([7]; intravenous, Asian population: Taiwan): 115 µg·h/mL | AUC ([7]; intravenous, Asian population: Vietnam): 146 µg·h/mL | AUC ([7]; intravenous, Bacteremia at baseline: No): 141 µg·h/mL | AUC ([7]; intravenous, Bacteremia at baseline: Yes): 161 µg·h/mL | AUC ([7]; intravenous, Baseline APACHE II score > 10): 170 µg·h/mL | AUC ([7]; intravenous, Baseline APACHE II score Missing): 138 µg·h/mL | AUC ([7]; intravenous, Baseline APACHE II score ≤ 10): 131 µg·h/mL | AUC ([7]; intravenous, Baseline WBC count (cells/μL) > 12,000): 136 µg·h/mL | AUC ([7]; intravenous, Baseline WBC count (cells/μL) ≤ 12,000): 145 µg·h/mL | AUC ([7]; intravenous, Patient population: NP): 169 µg·h/mL | AUC ([7]; intravenous, Patient population: Non‐VAP): 183 µg·h/mL | AUC ([7]; intravenous, Patient population: VAP): 146 µg·h/mL | AUC ([7]; intravenous, Patient population: cIAI): 132 µg·h/mL | AUC ([7]; intravenous, Patient population: cUTI): 138 µg·h/mL | AUC ([7]; intravenous, SIRS at baseline: Missing): 129 µg·h/mL | AUC ([7]; intravenous, SIRS at baseline: No): 143 µg·h/mL | AUC ([7]; intravenous, SIRS at baseline: Yes): 142 µg·h/mL | Cmax ([7]; intravenous, C max,ss geometric mean (CV), Asian population: Taiwan): 10200 ng/mL | Cmax ([7]; intravenous, C max,ss geometric mean (CV), Asian population: Vietnam): 14600 ng/mL | Cmax ([7]; intravenous, C max,ss geometric mean (CV), Bacteremia at baseline: No): 12600 ng/mL | Cmax ([7]; intravenous, C max,ss geometric mean (CV), Bacteremia at baseline: Yes): 14200 ng/mL | Cmax ([7]; intravenous, C max,ss geometric mean (CV), Baseline APACHE II score > 10): 14300 ng/mL | Cmax ([7]; intravenous, C max,ss geometric mean (CV), Baseline APACHE II score Missing): 12100 ng/mL | Cmax ([7]; intravenous, C max,ss geometric mean (CV), Baseline WBC count (cells/μL) > 12,000): 12500 ng/mL | Cmax ([7]; intravenous, C max,ss geometric mean (CV), Baseline WBC count (cells/μL) ≤ 12,000): 12800 ng/mL | Cmax ([7]; intravenous, C max,ss geometric mean (CV), Patient population: NP): 14200 ng/mL | Cmax ([7]; intravenous, C max,ss geometric mean (CV), Patient population: Non‐VAP): 15500 ng/mL | Cmax ([7]; intravenous, C max,ss geometric mean (CV), Patient population: VAP): 12000 ng/mL | Cmax ([7]; intravenous, C max,ss geometric mean (CV), Patient population: cIAI): 12800 ng/mL | Cmax ([7]; intravenous, C max,ss geometric mean (CV), Patient population: cUTI): 12100 ng/mL | Cmax ([7]; intravenous, C max,ss geometric mean (CV), SIRS at baseline: Missing): 12100 ng/mL | Cmax ([7]; intravenous, C max,ss geometric mean (CV), SIRS at baseline: No): 12800 ng/mL | Cmax ([7]; intravenous, C max,ss geometric mean (CV), SIRS at baseline: Yes): 12600 ng/mL | difference in steady‐state exposure vs. healthy volunteers ([7]; most patient subgroups): ≤ 20% | lower C max,ss ([7]; patients with VAP vs non‐VAP patients): ~ 20%
